Results reported in US6130248A, “Tricarboxylic acid-containing oxyalkyl esters and uses thereof” (Bar-ILAn University, priority 1996, dated 2000).

Columns and labels:
IMR-32 (Neuroblastoma) = assay: Clonogenicity of established tumor cell lines (soft agar); format: cell-based, human
Description: (§1) Inhibition of tumor growth was tested using cell lines as follows: […]

K562 (Erytholeukemia) = assay: as above; format: cell-based, human
Description: as §1

LA1-5S (Neuroblastoma) = assay: as above; format: cell-based, human
Description: as §1

[1] = system: LNCaP (Prostate Carcinoma); assay: as above; format: cell-based, human
Description: as §1

[2] = system: MCF7-40F (Breast Carcinoma); assay: as above; format: cell-based, human
Description: as §1

[3] = system: MCF7-WT (Breast Carcinoma); assay: as above; format: cell-based, human
Description: as §1

NBAS-5 (Neuroblastoma) = assay: as above; format: cell-based, human
Description: as §1

NBL-W-N (Neuroblastoma) = assay: as above; format: cell-based, human
Description: as §1

PC3 (Prostate Carcinoma) = assay: as above; format: cell-based, human
Description: as §1

SK-N-MC (Neuroblastoma) = assay: as above; format: cell-based, human
Description: as §1

SK-N-SH (Neuroblastoma) = assay: as above; format: cell-based, human
Description: as §1

SMS-KAN (Neuroblastoma) = assay: as above; format: cell-based, human
Description: as §1

[4] = system: established tumor cell lines; assay: Clonogenicity of established tumor cell lines, all lines together; format: cell-based, human; conditions: all cell lines
Description: as §1

[5] = system: P3HR-1 EBV-positive lymphoma cells; assay: [3H]-thymidine incorporation in EBV-positive lymphoma cells; format: cell-based, human; conditions: 72 hours
Description: The effect of GOMB to AB was compared on EBV virus-associated tumors. EBV-positive cells from P3HR-1, a human lymphoma cell line, were incubated in growth medium with the specified concentration of GOMB, AB, ganciclovir (GC), or combination of these, for 72 hours, seeded in 96-well plates and pulsed with 1 μCi [^3 H]-thymidine/well during the last 16 hours of exposure to the compounds. Cells were harvested with a cell harvester, using glass microfiber filters. The incorporation of [^3 H]-thymidine was determined by retention of the acid insoluble fraction on filters and is expressed as CPM.

CFPAC cells = assay: SRB cell proliferation assay; format: cell-based
Description: (§2) The inhibition of cell proliferation was measured in the indicated cancer cell lines using the sulforhoamine B (SRB) assay as described by Monks et al., J. Natl. Can. Inst. […] The SRB assay is used to screen for anti-cancer drugs.

HL-60 cells = assay: SRB cell proliferation assay; format: cell-based; conditions: Homo sapiens; HL-60, SRB
Description: as §2

HT-29 cells = assay: SRB cell proliferation assay; format: cell-based; conditions: Homo sapiens; HT-29, SRB
Description: as §2

MCF7 cells = assay: SRB cell proliferation assay; format: cell-based; conditions: Homo sapiens
Description: as §2

[6] = system: cancer cell lines (CFPAC, HL-60, HT-29, MCF7); assay: SRB cell proliferation assay, all cell lines together; format: cell-based
Description: as §2

K562 cells (HbF) = assay: HbF synthesis in K562 cells (ion-exchange HPLC); format: cell-based, human
Description: K562 cells: K562 is an erthroblast cell line that develops some properties of erythroid, megakaryocyte or monocyte cells, depending on the specific stimulus, when induced by different chemicals. K562 cells were grown in RPMI with 10% FCS, supplemented with 2 mM glutamine. Cells were incubated at 37° C. in a humidified, 5% CO2 incubator.

[7] = system: erythroid cells from peripheral blood (HbF); assay: HbF in cultured erythroid cells; format: cell-based; conditions: Homo sapiens; 0.2 mM, relative to untreated control cultures; read-out: increase of HbF in cultured erythroid cells
Description: Hb Measurement: HB was measured by benzidine staining of K562 cells after 5 days exposure to GOMB or AB according to the procedure of Fibach et al. (1989) [full cite]. Quantitative measurement of HbF in K562 culture or human erythroid cultures was determined by ion-exchange high pressure liquid chromatography (HPLC) as described by Fibach et al., Blood 81:1630-1635, 1993.
Erythroid cells: Erythroid cells were isolated from peripheral blood of healthy individuals by the method of Fibach (1993).

[8] = Homo sapiens, IMR-32 clonogenicity
[9] = Homo sapiens, K562 clonogenicity
[10] = Homo sapiens, LA1-5S clonogenicity
[11] = Homo sapiens, LNCaP clonogenicity
[12] = Homo sapiens, MCF7-40F clonogenicity
[13] = Homo sapiens, MCF7-WT clonogenicity
[14] = Homo sapiens, NBAS-5 clonogenicity
[15] = Homo sapiens, NBL-W-N clonogenicity
[16] = Homo sapiens, PC3 clonogenicity
[17] = Homo sapiens, SK-N-MC clonogenicity
[18] = Homo sapiens, SK-N-SH clonogenicity
[19] = Homo sapiens, SMS-KAN clonogenicity

In the case of `CCCC(=O)OCOC(=O)CCCC(=O)O` [GOMB, mono-(butyroyloxymethyl)glutarate], the IC50 (IMR-32 (Neuroblastoma); [8]) is reported as 23 µM, the IC90 (IMR-32 (Neuroblastoma); [8]) is reported as 41 µM and the “AB/GOMB IC50 Ratio” value (IMR-32 (Neuroblastoma); IMR-32) is reported as 38. For the same compound, the “AB/GOMB IC90 Ratio” value (IMR-32 (Neuroblastoma); IMR-32) was 87, the IC50 (K562 (Erytholeukemia); [9]) was 43.3 µM and the IC90 (K562 (Erytholeukemia); [9]) was 97 µM. For the same compound, the “AB/GOMB IC50 Ratio” value (K562 (Erytholeukemia); K562) was 17.8, the “AB/GOMB IC90 Ratio” value (K562 (Erytholeukemia); K562) was 68.6 and the IC50 (LA1-5S (Neuroblastoma); [10]) was 39 µM. For the same compound, the IC90 (LA1-5S (Neuroblastoma); [10]) was 59 µM, the “AB/GOMB IC50 Ratio” value (LA1-5S (Neuroblastoma); LA1-5S) was 42 and the “AB/GOMB IC90 Ratio” value (LA1-5S (Neuroblastoma); LA1-5S) was 45. For the same compound, the IC50 [1, 11] was 68.1 µM, the IC90 [1, 11] was 107 µM and the “AB/GOMB IC50 Ratio” value ([1]; LNCaP) was 11.4. For the same compound, the “AB/GOMB IC90 Ratio” value ([1]; LNCaP) was 63, the IC50 [2, 12] was 65.9 µM and the IC90 [2, 12] was 85.3 µM. The “AB/GOMB IC50 Ratio” value ([2]; MCF7-40F) was 12.4, the “AB/GOMB IC90 Ratio” value ([2]; MCF7-40F) was 37.3 and the IC50 [3, 13] was 43.5 µM. The IC90 [3, 13] was 97 µM, the “AB/GOMB IC50 Ratio” value ([3]; MCF7-WT) was 34.5 and the “AB/GOMB IC90 Ratio” value ([3]; MCF7-WT) was 97.7. For the same compound, the IC50 (NBAS-5 (Neuroblastoma); [14]) was 16 µM, the IC90 (NBAS-5 (Neuroblastoma); [14]) was 38 µM and the “AB/GOMB IC50 Ratio” value (NBAS-5 (Neuroblastoma); NBAS-5) was 23.2. The “AB/GOMB IC90 Ratio” value (NBAS-5 (Neuroblastoma); NBAS-5) was 343, the IC50 (NBL-W-N (Neuroblastoma); [15]) was 25 µM and the IC90 (NBL-W-N (Neuroblastoma); [15]) was 70 µM. The “AB/GOMB IC50 Ratio” value (NBL-W-N (Neuroblastoma); NBL-W-N) was 19.6, the “AB/GOMB IC90 Ratio” value (NBL-W-N (Neuroblastoma); NBL-W-N) was 44 and the IC50 (PC3 (Prostate Carcinoma); [16]) was 34.9 µM. The IC90 (PC3 (Prostate Carcinoma); [16]) was 96.1 µM, the “AB/GOMB IC50 Ratio” value (PC3 (Prostate Carcinoma); PC3) was 6.48 and the “AB/GOMB IC90 Ratio” value (PC3 (Prostate Carcinoma); PC3) was 46.6. The IC50 (SK-N-MC (Neuroblastoma); [17]) was 16 µM, the IC90 (SK-N-MC (Neuroblastoma); [17]) was 35 µM and the “AB/GOMB IC50 Ratio” value (SK-N-MC (Neuroblastoma); SK-N-MC) was 13.4. The “AB/GOMB IC90 Ratio” value (SK-N-MC (Neuroblastoma); SK-N-MC) was 37.5, the IC50 (SK-N-SH (Neuroblastoma); [18]) was 28 µM and the IC90 (SK-N-SH (Neuroblastoma); [18]) was 95 µM. For the same compound, the “AB/GOMB IC50 Ratio” value (SK-N-SH (Neuroblastoma); SK-N-SH) was 35.6, the “AB/GOMB IC90 Ratio” value (SK-N-SH (Neuroblastoma); SK-N-SH) was 37.8 and the IC50 (SMS-KAN (Neuroblastoma); [19]) was 27 µM. For the same compound, the IC90 (SMS-KAN (Neuroblastoma); [19]) was 80 µM, the “AB/GOMB IC50 Ratio” value (SMS-KAN (Neuroblastoma); SMS-KAN) was 42 and the “AB/GOMB IC90 Ratio” value (SMS-KAN (Neuroblastoma); SMS-KAN) was 26. The “ratio of IC50 AB:IC50 GOMB, median” value [4] was 28.5, the “ratio of IC90 AB:IC90 GOMB, median” value [4] was 53 and the “ratio of IC90 AB:IC90 GOMB, range” value [4] was 26-342 fold. For the same compound, the “potency relative to AB in inhibiting EBV-positive lymphoma cells” value [5] was 10 fold, the IC50 (CFPAC cells) was 32.5 µM and the IC90 (CFPAC cells) was 41 µM. For the same compound, the IC50 (HL-60 cells) was 24.5 µM, the IC90 (HL-60 cells) was 53.6 µM and the IC50 (HT-29 cells) was 98.2 µM. For the same compound, the IC90 (HT-29 cells) was 123 µM, the IC50 (MCF7 cells) was 109 µM and the IC90 (MCF7 cells) was 218 µM. For the same compound, the “activity relative to AB by IC50 and IC90 values” [6] was “at least 100 fold”, the “HbF Synthesis in K562 Cells” value (K562 cells (HbF); 0.01 mM) was 1.54 µg/mL and the “HbF Synthesis in K562 Cells” value (K562 cells (HbF); 0.05 mM) was 3.21 µg/mL. The “HbF Synthesis in K562 Cells” value (K562 cells (HbF); 0.10 mM) was 5.0 µg/mL and the activation at 200 µM [7] was 49.5%.
